Test results: the NIST ThermoML archive (doi:10.1016/j.jct.2015.09.030)

Assay: xn = mol fraction of the nth substance listed
Conditions: 100 kPa, Liquid; for mass density: Vibrating tube method; for viscosity: Falling or rolling sphere viscometry

CCCCCCCCCCCCCC[P+](CCCCCC)(CCCCCC)CCCCCC.[Cl-] [trihexyl(tetradecyl)phosphonium chloride] + CO
Conditions | mass density [kg/m3] | viscosity [mPa·s]
290.15 K, x1 = 0.0156 | 815.9 | –
290.15 K, x1 = 0.0351 | 832.7 | –
290.15 K, x1 = 0.056 | 845.2 | –
290.15 K, x1 = 0.0811 | 856.7 | –
290.15 K, x1 = 0.1271 | 869.2 | –
290.15 K, x1 = 0.2092 | 880.2 | –
290.15 K, x1 = 0.3681 | 889.1 | –
290.15 K, x1 = 0.4851 | 891.6 | –
290.15 K, x1 = 0.6453 | 894.2 | –
290.15 K, x1 = 0.7844 | 895.8 | –
290.15 K, x1 = 0.8997 | 896.8 | –
290.15 K, x1 = 1 | 897.5 | –
293.15 K, x1 = 0.0156 | 813.3 | –
293.15 K, x1 = 0.0351 | 830.4 | –
293.15 K, x1 = 0.056 | 842.9 | –
293.15 K, x1 = 0.0811 | 854.5 | –
293.15 K, x1 = 0.1271 | 867.2 | –
293.15 K, x1 = 0.2092 | 878.2 | –
293.15 K, x1 = 0.3681 | 887.2 | –
293.15 K, x1 = 0.4851 | 889.9 | –
293.15 K, x1 = 0.6453 | 892.5 | –
293.15 K, x1 = 0.7844 | 894 | –
293.15 K, x1 = 0.8997 | 895.1 | –
293.15 K, x1 = 1 | 895.8 | –
295.15 K, x1 = 0.0156 | 811.2 | 1.033
295.15 K, x1 = 0.0351 | 828.8 | 1.798
295.15 K, x1 = 0.056 | 841.4 | 3.34
295.15 K, x1 = 0.0811 | 853.1 | 6.279
295.15 K, x1 = 0.1271 | 865.8 | 15.65
295.15 K, x1 = 0.2092 | 876.9 | 45.36
295.15 K, x1 = 0.3681 | 885.9 | 173
295.15 K, x1 = 0.4851 | 888.9 | 401.5
295.15 K, x1 = 0.6453 | 891.4 | 820.4
295.15 K, x1 = 0.7844 | 892.9 | 1285
295.15 K, x1 = 0.8997 | 894 | 1687
295.15 K, x1 = 1 | 894.6 | 1996
298.15 K, x1 = 0.0156 | 809.1 | 0.988
298.15 K, x1 = 0.0351 | 826.4 | 1.695
298.15 K, x1 = 0.056 | 839.2 | 3.092
298.15 K, x1 = 0.0811 | 851 | 5.794
298.15 K, x1 = 0.1271 | 863.8 | 14.29
298.15 K, x1 = 0.2092 | 875 | 40.2
298.15 K, x1 = 0.3681 | 884 | 149.2
298.15 K, x1 = 0.4851 | 887.1 | 339.2
298.15 K, x1 = 0.6453 | 889.7 | 670
298.15 K, x1 = 0.7844 | 891.2 | 1046
298.15 K, x1 = 0.8997 | 892.1 | 1392
298.15 K, x1 = 1 | 892.8 | 1683
303.15 K, x1 = 0.0156 | 804.8 | 0.911
303.15 K, x1 = 0.0351 | 822.4 | 1.542
303.15 K, x1 = 0.056 | 835.4 | 2.704
303.15 K, x1 = 0.0811 | 847.4 | 5.089
303.15 K, x1 = 0.1271 | 860.4 | 12.28
303.15 K, x1 = 0.2092 | 871.8 | 33.24
303.15 K, x1 = 0.3681 | 880.9 | 116.2
303.15 K, x1 = 0.4851 | 884 | 255.5
303.15 K, x1 = 0.6453 | 886.7 | 486.4
303.15 K, x1 = 0.7844 | 888.2 | 744.5
303.15 K, x1 = 0.8997 | 889.1 | 978.6
303.15 K, x1 = 1 | 889.8 | 1174
308.15 K, x1 = 0.0156 | 800.5 | 0.842
308.15 K, x1 = 0.0351 | 818.5 | 1.407
308.15 K, x1 = 0.056 | 831.6 | 2.287
308.15 K, x1 = 0.0811 | 843.9 | 4.496
308.15 K, x1 = 0.1271 | 857.1 | 10.64
308.15 K, x1 = 0.2092 | 868.5 | 27.72
308.15 K, x1 = 0.3681 | 877.8 | 90.86
308.15 K, x1 = 0.4851 | 881 | 197.3
308.15 K, x1 = 0.6453 | 883.7 | 363.3
308.15 K, x1 = 0.7844 | 885.3 | 543.1
308.15 K, x1 = 0.8997 | 886.2 | 700
308.15 K, x1 = 1 | 886.9 | 824.1
313.15 K, x1 = 0.0156 | 796.3 | 0.79
313.15 K, x1 = 0.0351 | 814.5 | 1.289
313.15 K, x1 = 0.056 | 827.9 | 1.901
313.15 K, x1 = 0.0811 | – | 4.071
313.15 K, x1 = 0.1271 | – | 9.437
313.15 K, x1 = 0.2092 | 865.3 | 23.32
313.15 K, x1 = 0.3681 | 874.5 | 81.39
313.15 K, x1 = 0.4851 | 878.6 | 151.5
313.15 K, x1 = 0.6453 | 880.8 | 271.4
313.15 K, x1 = 0.7844 | 882.6 | 396.8
313.15 K, x1 = 0.8997 | 883.2 | 505.7
313.15 K, x1 = 1 | 883.9 | 593.7
